Assay results: the NIST ThermoML archive (doi:10.1016/j.tca.2014.03.038)
± gives the expanded uncertainty stated by the source.

How the values were obtained:
[1] = 101.33 kPa, Liquid; for mass density: Pycnometric method; for speed of sound: multifrequency ultrasonic interferometer
[2] = xn = mol fraction of the nth substance listed; conditions: 101 kPa, Liquid; for mass density: Pycnometric method; for speed of sound: multifrequency ultrasonic interferometer

CN(C)CCO [2-(N,N-dimethylamino)ethanol]
[1]
Conditions | mass density [kg/m3] | speed of sound [m/s]
298.15 K | 883.34 ± 0.4 | 1344.4 ± 0.8
308.15 K | 874.99 ± 0.42 | 1309.1 ± 0.8
318.15 K | 866.37 ± 0.44 | 1274.1 ± 0.8

CN(C)CCO [2-(N,N-dimethylamino)ethanol] + CCO
[2]
Conditions | mass density, 298.15 K [kg/m3] | mass density, 308.15 K [kg/m3] | mass density, 318.15 K [kg/m3] | speed of sound, 298.15 K [m/s] | speed of sound, 308.15 K [m/s] | speed of sound, 318.15 K [m/s]
x1 = 0.0929 | 803.31 ± 0.24 | 795.34 ± 0.27 | 787.23 ± 0.3 | 1172.7 ± 0.4 | 1141.5 ± 0.4 | 1109.4 ± 0.4
x1 = 0.1972 | 820.2 ± 0.26 | 812.45 ± 0.28 | 804.46 ± 0.31 | 1206.4 ± 0.5 | 1176.1 ± 0.5 | 1144.1 ± 0.5
x1 = 0.3005 | 834.5 ± 0.27 | 826.62 ± 0.29 | 818.61 ± 0.32 | 1236.8 ± 0.5 | 1207.1 ± 0.5 | 1176.3 ± 0.5
x1 = 0.4012 | 846.38 ± 0.28 | 838.41 ± 0.31 | 830.22 ± 0.33 | 1264.9 ± 0.6 | 1234.4 ± 0.6 | 1205.1 ± 0.6
x1 = 0.5051 | 856.62 ± 0.3 | 848.64 ± 0.32 | 840.29 ± 0.35 | 1290.4 ± 0.6 | 1259.8 ± 0.6 | 1231.3 ± 0.6
x1 = 0.6098 | 864.64 ± 0.31 | 856.77 ± 0.34 | 848.47 ± 0.37 | 1309.3 ± 0.7 | 1279.1 ± 0.7 | 1251 ± 0.7
x1 = 0.7086 | 871.01 ± 0.33 | 863.28 ± 0.36 | 854.97 ± 0.38 | 1321 ± 0.7 | 1292 ± 0.7 | 1264.2 ± 0.7
x1 = 0.8031 | 875.81 ± 0.35 | 868.08 ± 0.38 | 859.92 ± 0.4 | 1329.8 ± 0.8 | 1300.4 ± 0.8 | 1271.8 ± 0.8
x1 = 0.9036 | 879.78 ± 0.37 | 871.92 ± 0.4 | 863.76 ± 0.42 | 1336.4 ± 0.8 | 1304.5 ± 0.8 | 1273.3 ± 0.8
x1 = 1 | 883.34 ± 0.4 | 874.99 ± 0.42 | 866.37 ± 0.44 | 1344.4 ± 0.9 | 1309.1 ± 0.9 | 1274.1 ± 0.9

CN(C)CCO [2-(N,N-dimethylamino)ethanol] + CO
[2]
Conditions | mass density, 298.15 K [kg/m3] | mass density, 308.15 K [kg/m3] | mass density, 318.15 K [kg/m3] | speed of sound, 298.15 K [m/s] | speed of sound, 308.15 K [m/s] | speed of sound, 318.15 K [m/s]
x1 = 0.0971 | 814.11 ± 0.26 | 806.11 ± 0.28 | 797.9 ± 0.31 | 1152.4 ± 0.5 | 1126.7 ± 0.5 | 1101.6 ± 0.5
x1 = 0.1983 | 835.29 ± 0.27 | 827.54 ± 0.3 | 819.51 ± 0.32 | 1204.7 ± 0.5 | 1180.5 ± 0.5 | 1156.2 ± 0.5
x1 = 0.2962 | 850.65 ± 0.28 | 842.65 ± 0.31 | 834.22 ± 0.34 | 1249.8 ± 0.6 | 1225.3 ± 0.6 | 1199.5 ± 0.6
x1 = 0.4039 | 862.04 ± 0.3 | 853.81 ± 0.32 | 845.26 ± 0.35 | 1290.2 ± 0.6 | 1265.5 ± 0.6 | 1238.9 ± 0.6
x1 = 0.502 | 868.4 ± 0.31 | 860.4 ± 0.34 | 852.01 ± 0.36 | 1312 ± 0.6 | 1288.1 ± 0.6 | 1261.3 ± 0.6
x1 = 0.607 | 873.13 ± 0.33 | 865.13 ± 0.35 | 856.89 ± 0.38 | 1322.4 ± 0.7 | 1299.3 ± 0.7 | 1272.9 ± 0.7
x1 = 0.7075 | 876.61 ± 0.34 | 868.67 ± 0.37 | 860.58 ± 0.39 | 1326.9 ± 0.7 | 1301.3 ± 0.7 | 1273.6 ± 0.7
x1 = 0.7999 | 879.06 ± 0.36 | 871.15 ± 0.38 | 862.98 ± 0.41 | 1330.6 ± 0.8 | 1303.1 ± 0.8 | 1273.9 ± 0.8
x1 = 0.9015 | 881.19 ± 0.38 | 873.28 ± 0.4 | 865.23 ± 0.43 | 1335 ± 0.8 | 1304.2 ± 0.8 | 1274 ± 0.8
x1 = 1 | 883.34 ± 0.4 | 874.99 ± 0.42 | 866.37 ± 0.44 | 1344.4 ± 0.9 | 1309.1 ± 0.9 | 1274.1 ± 0.9

CCO [ethanol]
[1]
Conditions | mass density [kg/m3] | speed of sound [m/s]
298.15 K | 785.48 ± 0.23 | 1143.2 ± 0.1
308.15 K | 776.82 ± 0.26 | 1109.6 ± 0.1
318.15 K | 768.08 ± 0.29 | 1075.5 ± 0.1

CCO [ethanol] + CN(C)CCO
[2], x2 = 0
Conditions | mass density [kg/m3] | speed of sound [m/s]
298.15 K | 785.48 ± 0.23 | 1143.2 ± 0.4
308.15 K | 776.82 ± 0.26 | 1109.6 ± 0.4
318.15 K | 768.08 ± 0.29 | 1075.5 ± 0.4

CO [methanol]
[1]
Conditions | mass density [kg/m3] | speed of sound [m/s]
298.15 K | 786.74 ± 0.24 | 1100.7 ± 0.2
308.15 K | 777.45 ± 0.26 | 1068.2 ± 0.2
318.15 K | 768.01 ± 0.29 | 1037 ± 0.2

CO [methanol] + CN(C)CCO
[2], x2 = 0
Conditions | mass density [kg/m3] | speed of sound [m/s]
298.15 K | 786.74 ± 0.24 | 1100.7 ± 0.5
308.15 K | 777.45 ± 0.26 | 1068.2 ± 0.5
318.15 K | 768.01 ± 0.29 | 1037 ± 0.5
